The assay addresses T1, human A2a receptor (Homo sapiens, UniProt P29274).
T1 construct: purchased Perkin-Elmer RBHA2AM400UA; host or cells: HEK293 cells (membranes)
In words: A2a competition binding assay, Scintillation Proximity technology. Conditions: membranes from HEK293 cells expressing human A2a receptor; Ki by Cheng-Prusoff equation. A digest of the protocol:
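Membranes from HEK293 cells expressing human A2a, adenosine deaminase-treated, incubated 1 h at room temperature with compound (3000 to 0.15 nM) and 0.5 nM tritiated pyrazolotriazolopyrimidine radioligand on WGA SPA beads in Ca/Mg-free PBS + 10 mM MgCl2. Non-specific binding with 1 μM CGS15943; Ki by Cheng-Prusoff.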
(In general: In a scintillation proximity assay essentially only radioactivity close to the scintillant gives light.)

T1 sequence (P29274 whole entry): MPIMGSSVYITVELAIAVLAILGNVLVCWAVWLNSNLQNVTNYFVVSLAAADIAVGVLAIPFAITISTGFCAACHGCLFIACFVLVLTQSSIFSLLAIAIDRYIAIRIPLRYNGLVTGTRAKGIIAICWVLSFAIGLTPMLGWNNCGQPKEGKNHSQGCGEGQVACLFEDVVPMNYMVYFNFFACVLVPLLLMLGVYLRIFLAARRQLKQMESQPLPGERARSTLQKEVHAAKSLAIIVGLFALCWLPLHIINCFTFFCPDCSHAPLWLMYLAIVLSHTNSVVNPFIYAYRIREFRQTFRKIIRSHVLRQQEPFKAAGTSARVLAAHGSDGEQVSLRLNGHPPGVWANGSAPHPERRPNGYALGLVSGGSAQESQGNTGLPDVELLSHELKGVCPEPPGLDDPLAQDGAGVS

Usually Ki stands for a measure of affinity in units of concentration, obtained from inhibition or displacement. Molecule `Cc1nc(C(=O)NCc2ccccc2F)c(N)nc1-c1ncco1` [Ex-30, 3-amino-N-(2-fluorobenzyl)-6-methyl-5-(1,3-oxazol-2-yl)pyrazine-2-carboxamide] gave an inhibitory constant (Ki) of 0.314 nM.

On to `Cc1nc(C(=O)NCc2nccc(OCC(F)(F)F)c2C)c(N)nc1-c1ncco1` [Ex-58, 3-amino-6-methyl-N-{[3-methyl-4-(2,2,2-trifluoroethoxy)pyridin-2-yl]methyl}-5-(1,3-oxazol-2-yl)pyrazine-2-carboxamide], for which affinity was put at a Ki of 4.56 nM. With `Nc1nc(-n2nccn2)c(Cl)nc1C(=O)NCc1cccc2cnccc12` [Ex-296, 3-amino-6-chloro-N-(isoquinolin-5-ylmethyl)-5-(2H-1,2,3-triazol-2-yl)pyrazine-2-carboxamide] the figure was 35.6 nM. As for `Nc1ccccc1CNC(=O)c1nc(Cl)c(-n2nccn2)nc1N` [Ex-303, 3-amino-N-(2-aminobenzyl)-6-chloro-5-(2H-1,2,3-triazol-2-yl)pyrazine-2-carboxamide], the figure is 14.4 nM; as for `COc1cccc(CNC(=O)c2nc(C)c(-c3ncco3)nc2N)n1` [Ex-22, 3-amino-N-[(6-methoxypyridin-2-yl)methyl]-6-methyl-5-(1,3-oxazol-2-yl)pyrazine-2-carboxamide], 0.919 nM; as for `Cc1cnn(-c2nc(N)c(C(=O)N[C@@H]3CCc4ccccc43)nc2Cl)c1` [Ex-336, 3-amino-6-chloro-N-[(1R)-2,3-dihydro-1H-inden-1-yl]-5-(4-methyl-1H-pyrazol-1-yl)pyrazine-2-carboxamide], 135 nM. As for `Cc1nc(C(=O)NCc2ncn(C(C)C)c2C)c(N)nc1-c1ncco1` [Ex-38, 3-amino-6-methyl-N-{[5-methyl-1-(1-methylethyl)-1H-imidazol-4-yl]methyl}-5-(1,3-oxazol-2-yl)pyrazine-2-carboxamide], the figure is 2.27 nM; as for `Cc1nc(C(=O)NC2CCCc3cccnc32)c(N)nc1-c1ncco1` (single isomer, unassigned) [Ex-230A, 3-amino-6-methyl-5-(1,3-oxazol-2-yl)-N-(5,6,7,8-tetrahydroquinolin-8-yl)pyrazine-2-carboxamide], 3.74 nM; as for `CCn1cc2c(CNC(=O)c3nc(C)c(-c4ncco4)nc3N)cccc2n1` [Ex-243, 3-amino-N-[(2-ethyl-2H-indazol-4-yl)methyl]-6-methyl-5-(1,3-oxazol-2-yl)pyrazine-2-carboxamide], 15.1 nM. For the molecule `Nc1nc(-n2nccn2)c(Cl)nc1C(=O)NCc1cccc2ncccc12` [Ex-309, 3-amino-6-chloro-N-(quinolin-5-ylmethyl)-5-(2H-1,2,3-triazol-2-yl)pyrazine-2-carboxamide], the affinity, expressed as Ki, was 180 nM.

`Cc1nc(C(=O)N2CCCc3ccccc32)c(N)nc1-c1ncco1` [Ex-24] returned a Ki of 78.5 nM. As for `Cc1nc(C(=O)NCc2cccc3c2ncn3CC(F)F)c(N)nc1-c1ncco1` [Ex-36, 3-amino-N-{[1-(2,2-difluoroethyl)-1H-benzimidazol-4-yl]methyl}-6-methyl-5-(1,3-oxazol-2-yl)pyrazine-2-carboxamide], the figure is 0.464 nM. As for `Nc1nc(-n2nccn2)c(Cl)nc1C(=O)N[C@@H]1C[C@@]1(F)c1ccccc1` [Ex-316, 3-amino-6-chloro-N-[(1R,2R)-2-fluoro-2-phenylcyclopropyl]-5-(2H-1,2,3-triazol-2-yl)pyrazine-2-carboxamide], the figure is 66.9 nM; as for `Cc1nc(C(=O)NCc2cc(C(F)F)cc(C(F)F)n2)c(N)nc1-c1ncco1` [Ex-63, 3-amino-N-{[4,6-bis(difluoromethyl)pyridin-2-yl]methyl}-6-methyl-5-(1,3-oxazol-2-yl)pyrazine-2-carboxamide], 2.52 nM. `Cc1nc(C(=O)NCc2ncccc2CF)c(N)nc1-c1ncco1` [Ex-224, 3-amino-N-{[3-(fluoromethyl)pyridin-2-yl]methyl}-6-methyl-5-(1,3-oxazol-2-yl)pyrazine-2-carboxamide]: affinity was put at a Ki of 0.201 nM. As for `COc1ncccc1CNC(=O)c1nc(C)c(-c2ncco2)nc1N` [Ex-124, 3-amino-N-[(2-methoxypyridin-3-yl)methyl]-6-methyl-5-(1,3-oxazol-2-yl)pyrazine-2-carboxamide], the figure is 1.77 nM; as for `Cc1nc(C(=O)N[C@H]2[C@H](C)CC[C@H]2O)c(N)nc1-c1ncco1` [Ex-207, 3-amino-N-[(1S,2R,5R)-2-hydroxy-5-methylcyclopentyl]-6-methyl-5-(1,3-oxazol-2-yl)pyrazine-2-carboxamide], 2.92 nM; as for `Nc1nc(-n2nccn2)c(Cl)nc1C(=O)NCc1cn2ccsc2n1` [Ex-310, 3-amino-6-chloro-N-(imidazo[2,1-b][1,3]thiazol-6-ylmethyl)-5-(2H-1,2,3-triazol-2-yl)pyrazine-2-carboxamide], 15.7 nM. `Cc1nc(C(=O)NCc2nn(C)cc2C(F)F)c(N)nc1-c1ncco1` [Ex-194, 3-amino-N-{[4-(difluoromethyl)-1-methyl-1H-pyrazol-3-yl]methyl}-6-methyl-5-(1,3-oxazol-2-yl)pyrazine-2-carboxamide] displayed an inhibition constant Ki of 1.65 nM.

The molecule `CCn1ncc2c(CNC(=O)c3nc(C)c(-c4ncco4)nc3N)cccc21` [Ex-242, 3-amino-N-[(1-ethyl-1H-indazol-4-yl)methyl]-6-methyl-5-(1,3-oxazol-2-yl)pyrazine-2-carboxamide] came in with a Ki of 1.09 nM. With `Cc1cnn(-c2nc(N)c(C(=O)NCc3cccc4c3C(=O)NC4)nc2Cl)c1` [Ex-363, 3-amino-6-chloro-5-(4-methyl-1H-pyrazol-1-yl)-N-[(3-oxo-2,3-dihydro-1H-isoindol-4-yl)methyl]pyrazine-2-carboxamide] the figure was 0.5 nM. As for `Cc1cnn(-c2nc(N)c(C(=O)NCc3cccc4[nH]ccc34)nc2Cl)c1` [Ex-353, 3-amino-6-chloro-N-(1H-indol-4-ylmethyl)-5-(4-methyl-1H-pyrazol-1-yl)pyrazine-2-carboxamide], the figure is 49 nM; as for `Cc1nc(C(=O)NCc2cccc3c2ncn3C)c(N)nc1-c1ncco1` [Ex-218, 3-amino-6-methyl-N-[(1-methyl-1H-benzimidazol-4-yl)methyl]-5-(1,3-oxazol-2-yl)pyrazine-2-carboxamide], 0.309 nM; as for `Cc1nc(C(=O)NC2CCCC2(F)F)c(N)nc1-c1ncco1` (single isomer, unassigned) [Ex-191A, 3-amino-N-(2,2-difluorocyclopentyl)-6-methyl-5-(1,3-oxazol-2-yl)pyrazine-2-carboxamide], 1.33 nM.

`Cc1cnn(-c2nc(N)c(C(=O)NCc3ccccc3)nc2Cl)c1` [Ex-358, 3-amino-N-benzyl-6-chloro-5-(4-methyl-1H-pyrazol-1-yl)pyrazine-2-carboxamide]: the inhibitory constant (Ki) was found to be 73.3 nM. As for `Cc1ccc(CNC(=O)c2nc(C)c(-c3ncco3)nc2N)nc1-c1ccccn1` [Ex-88, 3-amino-6-methyl-N-[(3-methyl-2,2′-bipyridin-6-yl)methyl]-5-(1,3-oxazol-2-yl)pyrazine-2-carboxamide], the figure is 6.16 nM; as for `Nc1nc(-n2nccn2)c(Cl)nc1C(=O)NCc1cc2ccccc2[nH]1` [Ex-308, 3-amino-6-chloro-N-(1H-indol-2-ylmethyl)-5-(2H-1,2,3-triazol-2-yl)pyrazine-2-carboxamide], 34.5 nM; as for `Nc1nc(-n2nccn2)c(Cl)nc1C(=O)NCc1ccc2ccccc2n1` [Ex-306, 3-amino-6-chloro-N-(quinolin-2-ylmethyl)-5-(2H-1,2,3-triazol-2-yl)pyrazine-2-carboxamide], 48.6 nM.

As for `Cc1nc(C(=O)NC2CCc3ccccc3C2)c(N)nc1-c1ncco1` (single isomer, unassigned) [Ex-233B, 3-amino-6-methyl-5-(1,3-oxazol-2-yl)-N-(1,2,3,4-tetrahydronaphthalen-2-yl)pyrazine-2-carboxamide], the Ki stood at 0.572 nM. As for `Cc1cc(F)cnc1CNC(=O)c1nc(C)c(-c2ncco2)nc1N` [Ex-107, 3-amino-N-[(5-fluoro-3-methylpyridin-2-yl)methyl]-6-methyl-5-(1,3-oxazol-2-yl)pyrazine-2-carboxamide], the figure is 1.15 nM. With `Cc1nc(C(=O)NCc2cccc(C(F)(F)F)n2)c(N)nc1-c1ncco1` [Ex-121, 3-amino-6-methyl-5-(1,3-oxazol-2-yl)-N-{[6-(trifluoromethyl)pyridin-2-yl]methyl}pyrazine-2-carboxamide], the affinity, expressed as Ki, was 3.18 nM.

With `Cc1c[nH]c(CNC(=O)c2nc(C)c(-c3ncco3)nc2N)n1` [Ex-14, 3-amino-6-methyl-N-[(4-methyl-1H-imidazol-2-yl)methyl]-5-(1,3-oxazol-2-yl)pyrazine-2-carboxamide], the affinity, expressed as Ki, was 2.12 nM. As for `Cc1nc(C(=O)NCC(=O)c2ccc(F)cc2)c(N)nc1-c1ncco1` [Ex-112, 3-amino-N-[2-(4-fluorophenyl)-2-oxoethyl]-6-methyl-5-(1,3-oxazol-2-yl)pyrazine-2-carboxamide], the figure is 14.5 nM.

In turn, `Cc1cnn(-c2nc(N)c(C(=O)NCc3cccc4cccnc34)nc2Cl)c1` [Ex-340, 3-amino-6-chloro-5-(4-methyl-1H-pyrazol-1-yl)-N-(quinolin-8-ylmethyl)pyrazine-2-carboxamide] showed a Ki of 12.8 nM. On to `COc1ccc2c(c1)CCC2NC(=O)c1nc(C)c(-c2ncco2)nc1N` (single isomer, unassigned) [Ex-231B, 3-amino-N-(5-methoxy-2,3-dihydro-1H-inden-1-yl)-6-methyl-5-(1,3-oxazol-2-yl)pyrazine-2-carboxamide], for which the affinity, expressed as Ki, was 10.5 nM. With `Cc1cnnc(CNC(=O)c2nc(C)c(-c3ncco3)nc2N)c1` [Ex-56, 3-amino-6-methyl-N-[(5-methylpyridazin-3-yl)methyl]-5-(1,3-oxazol-2-yl)pyrazine-2-carboxamide] the figure was 21.5 nM; with `Cc1nc(C(=O)NC2CCCC(O)CC2)c(N)nc1-c1ncco1` (single isomer, unassigned) [Ex-165C, 3-amino-N-(4-hydroxycycloheptyl)-6-methyl-5-(1,3-oxazol-2-yl)pyrazine-2-carboxamide], 7.64 nM.

The values above are taken from patent US10472347B2, “Aminopyrazine compounds with A2A antagonist properties” (Merck Sharp & Dohme Corp., priority 2014, dated 2019).
